Reference: PubChem BioAssay (NCI)
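Values below derive from 48-hour exposures of cells grown in 96-well plates, with endpoints linearly interpolated between the two concentrations bracketing the appropriate inhibition level. GI50 = concentration required for 50% inhibition of growth. TGI: concentration producing complete growth inhibition.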

Legend:
Assay in all cases: inhibition of tumour cell growth, NCI panel, 48 h
RPMI-8226 leukemia = system: RPMI-8226 leukemia
SK-OV-3 ovarian = system: SK-OV-3 ovarian
SN12C renal = system: SN12C renal
SNB-75 CNS = system: SNB-75 CNS
SF-268 CNS = system: SF-268 CNS
HCT-15 colon = system: HCT-15 colon
CCRF-CEM leukemia = system: CCRF-CEM leukemia
HL-60(TB) leukemia = system: HL-60(TB) leukemia
TK-10 renal = system: TK-10 renal
DU-145 prostate = system: DU-145 prostate

SMILES | TGI (RPMI-8226 leukemia) [µM] | TGI (SK-OV-3 ovarian) [µM] | TGI (SN12C renal) [µM] | TGI (SNB-75 CNS) [µM] | TGI (SF-268 CNS) [µM] | TGI (HCT-15 colon) [µM] | TGI (CCRF-CEM leukemia) [µM] | TGI (HL-60(TB) leukemia) [µM] | TGI (TK-10 renal) [µM] | TGI (DU-145 prostate) [µM] | GI50 (RPMI-8226 leukemia) [µM] | GI50 (SK-OV-3 ovarian) [µM] | GI50 (SN12C renal) [µM] | GI50 (SNB-75 CNS) [µM] | GI50 (SF-268 CNS) [µM] | GI50 (HCT-15 colon) [µM] | GI50 (HL-60(TB) leukemia) [µM] | GI50 (TK-10 renal) [µM] | GI50 (DU-145 prostate) [µM] | GI50 (CCRF-CEM leukemia) [µM]
CN=NN(C)C(=O)NC | > 100 | > 100 | > 100 | > 100 | > 100 | > 100 | > 100 | > 100 | > 100 | – | – | – | – | – | – | – | – | – | – | –
COc1ccc(C(=O)C(CO)Oc2ccccc2OC)cc1OC (stereo unspecified) | > 100 | > 100 | > 100 | > 100 | > 100 | > 100 | > 100 | > 100 | > 100 | – | – | – | – | – | – | – | – | – | – | –
COC(=O)/C=C/C1C(C(=O)OC)C2(C(=O)OC)CCC1(C(=O)OC)N2 (stereo unspecified) | > 100 | > 100 | > 100 | > 100 | > 100 | > 100 | > 100 | > 100 | > 100 | – | – | – | – | – | – | – | – | – | – | –
CC1=C(C(=O)Nc2c(C)cccc2C)C(c2ccccc2Cl)C(C(=O)Nc2c(C)cccc2C)=C(C)N1 | > 100 | > 100 | > 100 | > 100 | > 100 | – | > 100 | > 100 | > 100 | – | – | – | – | – | – | – | – | – | – | –
N#C/C(=C\c1ccc(O)c(O)c1)C(N)=O | > 100 | > 100 | > 100 | > 100 | > 100 | > 100 | 37.7 | 23.9 | > 100 | – | – | – | – | – | – | – | – | – | – | –
CCCCCCCCCc1cc(=O)c2c(O)cccc2o1 | > 100 | > 100 | > 100 | > 10 | > 100 | > 100 | > 100 | 93.9 | > 100 | – | – | – | – | – | – | – | – | – | – | –
COC(COC(=O)N1CCN(C=O)CC1)C1=C(N2CC2)C(=O)C(C)=C(N2CC2)C1=O (stereo unspecified) | 1.52 | 2.11 | 1.14 | – | 6.45 | 8.1 | 4.77 | – | 2.09 | 4.01 | – | – | – | – | – | – | – | – | – | –
O=C(CSc1nnc(-c2ccccc2NC(=O)C(F)(F)F)c(=O)[nH]1)NC(=O)Nc1ccccc1 | – | > 100 | > 100 | 45 | > 100 | > 100 | > 100 | – | > 100 | – | – | – | – | – | – | – | – | – | – | –
COc1ccc(-c2cc(-c3cccn3C)c(C#N)c(N)n2)cc1OC | > 100 | > 100 | > 100 | 70.9 | > 100 | > 100 | – | > 100 | > 100 | > 100 | 38.5 | > 100 | 66.9 | 21.1 | 82.4 | > 100 | 19.6 | > 100 | 91.6 | –
CC(=O)OCC1OC([S-])C(OC(C)=O)C(OC(C)=O)C1OC(C)=O.CC[PH+](CC)CC.CC[PH+](CC)CC.[Au].[Au] (stereo unspecified) | 0.761 | 3.05 | 1.78 | 1.16 | 0.669 | 0.452 | 0.277 | 0.0214 | 1.69 | – | 0.138 | 1.68 | 0.567 | 0.249 | 0.207 | 0.165 | – | 0.717 | – | 0.0748
CCOC(=O)C1N(S(=O)(=O)c2ccc(C)cc2)CCC12C(c1ccc(OC)cc1)NC1CCCCC12 (stereo unspecified) | > 100 | > 100 | > 100 | 77.8 | > 100 | > 100 | > 100 | > 100 | > 100 | – | – | – | – | – | – | – | – | – | – | –
CCOC(=O)[C@H](CCCNC(=O)OC(C)(C)C)NCc1ccc(OC)c(OC)c1 | – | > 100 | > 100 | > 100 | > 100 | – | > 100 | > 100 | > 100 | – | – | – | – | – | – | – | – | – | – | –
N#CC(/C(=N/NC(=O)C(=O)NN)C(=O)NC12CC3CC(CC(C3)C1)C2)c1ccccc1 (stereo unspecified) | > 100 | > 100 | > 100 | > 100 | > 100 | > 100 | > 100 | > 100 | > 100 | – | – | – | – | – | – | – | – | – | – | –
CC(C)(C)N1CC2(CCCCC2)C1=O | > 100 | > 100 | > 100 | > 100 | > 100 | > 100 | > 100 | > 100 | > 100 | – | – | – | – | – | – | – | – | – | – | –
COc1c(C)c2c(c(C)c1Cl)Oc1c(C=O)c(O)c(Cl)c(C)c1C(=O)O2 | > 100 | > 100 | > 100 | 79.7 | > 100 | – | 72.5 | 57.8 | > 100 | – | – | – | – | – | – | – | – | – | – | –
O=C1c2ccn(CCCCNC(CO)(CO)CO)c2C(=O)c2c1c(O)c1ccccc1c2O | 11 | > 47.8 | 8.83 | 47.2 | 18.1 | – | – | 21 | 1.72 | 4.69 | 1.21 | 7.81 | 4.39 | 11.9 | 3.41 | – | 2.56 | 0.517 | 1.89 | –
Cc1cccc(NC(=O)/C=C/c2ccc(N(CCC#N)CCC#N)cc2C)c1 | > 100 | > 100 | > 100 | > 100 | > 100 | > 100 | > 100 | > 100 | > 100 | – | – | – | – | – | – | – | – | – | – | –
C#CC(=O)Nc1cccc(Nc2nc3c(c(NCc4ccccc4)n2)CCCC3)c1 | – | 0.793 | – | – | 0.0958 | 1.14 | – | – | 2.85 | 1.95 | – | 0.336 | – | – | 0.0203 | 0.231 | – | 1.49 | 0.446 | –
O=C(/C=C/c1c(O)ccc2ccccc12)c1ccc2ccccc2c1 | > 100 | > 100 | > 100 | > 100 | > 100 | > 100 | > 100 | > 100 | > 100 | – | – | – | – | – | – | – | – | – | – | –
O=C(CCC(=O)Nc1cccc(Cl)c1)CC(=O)c1ccc(Cl)cc1 | > 100 | > 100 | > 100 | > 100 | > 100 | > 100 | – | > 100 | > 100 | – | – | – | – | – | – | – | – | – | – | –
O=C(Nc1ccc([N+](=O)[O-])cc1)C1C(=O)C(=O)N(c2ccc([N+](=O)[O-])cc2)C1=O (stereo unspecified) | > 100 | > 100 | > 100 | > 100 | > 100 | > 100 | > 100 | > 100 | > 100 | – | – | – | – | – | – | – | – | – | – | –
